Data reported in patent US12162840B2, “Herbicidal compositions” (SYNGENTA PARTICIPATIONS AG, priority 2018, dated 2024).

Key:
Type in all cases: in vivo
[1] = test system: Amaranthus retoflexus (AMARE); assay: B1 Post-emergence efficacy Test 1; conditions: post-emergence application, 1000 g/ha, evaluated after 13 days
Description: (§1) Seeds of a variety of test species are sown in standard soil in pots:—Solanum nigrum (SOLNI), Amaranthus retoflexus (AMARE), Setaria faberi (SETFA), Alopecurus myosuroides (ALOMY), Echinochloa crus-galli (ECHCG), Ipomoea hederacea (IPOHE), Lolium perenne (LOLPE). After 8 days cultivation (post-emergence) under controlled conditions in a glasshouse (at 24/16° C., day/night; 14 hours light; 65% humidity), the plants are sprayed with an aqueous spray solution derived from the formulation of the technical active ingredient in acetone/water (50:50) solution containing 0.5% Tween 20 (polyoxyethylene sorbitan monolaurate, CAS RN 9005-64-5). Compounds are applied at 1000 g/ha. The test plants are then grown in a glasshouse under controlled conditions in a glasshouse (at 24/16° C., day/night; 14 hours light; 65% humidity) and watered twice daily. After 13 days, the test is evaluated for the percentage damage caused to the plant. The biological activities are assessed on a five point scale (5=80-100%; 4=60-79%; 3=40-59%; 2=20-39%; 1=0-19%). A blank value in the table is indicative that the compound was not tested on that species.

[2] = test system: Echinochloa crus-galli (ECHCG); assay: B1 Post-emergence efficacy Test 1; conditions: post-emergence application, 1000 g/ha, evaluated after 13 days
Description: as §1

[3] = test system: Ipomoea hederacea (IPOHE); assay: B1 Post-emergence efficacy Test 1; conditions: post-emergence application, 1000 g/ha, evaluated after 13 days
Description: as §1

[4] = test system: Lolium perenne (LOLPE); assay: B1 Post-emergence efficacy Test 1; conditions: post-emergence application, 1000 g/ha, evaluated after 13 days
Description: as §1

[5] = test system: Setaria faberi (SETFA); assay: B1 Post-emergence efficacy Test 1; conditions: post-emergence application, 1000 g/ha, evaluated after 13 days
Description: as §1

[6] = test system: Solanum nigrum (SOLNI); assay: B1 Post-emergence efficacy Test 1; conditions: post-emergence application, 1000 g/ha, evaluated after 13 days
Description: as §1

[7] = test system: warm season plant species; assay: B2 Post-emergence efficacy Test 2, warm season plant species; conditions: 15 days after application, 0-100 scale, 0=no damage, 100=total kill; for Herbicidal activity, ABUTH: Abutilon theophrasti; for Herbicidal activity, AMARE: Amaranthus retroflexus; for Herbicidal activity, BIDPI: Bidens pilosa; for Herbicidal activity, BRAPL: Brachiaria plantaginea; for Herbicidal activity, DIGSA: Digitaria sanguinalis; for Herbicidal activity, ECHCG: Echinochloa crus galli; for Herbicidal activity, ELEIN: Eleisine indica; for Herbicidal activity, EPHHL: Euphorbia hetrophylla; for Herbicidal activity, GLXMA: Glycine max; for Herbicidal activity, IPOHE: Ipomoea hederacea; for Herbicidal activity, ORYSA: Orysa sativa; for Herbicidal activity, PANMI: Panicum miliaceum; for Herbicidal activity, SETFA: Setaria faberi; for Herbicidal activity, SIDSP: Sida spinosa; for Herbicidal activity, SORVU: Sorghum bicolour; for Herbicidal activity, XANST: Xanthium strumarium; for Herbicidal activity, ZEAMX: Zea mays
Description: Seeds of a variety of test species (see Table B1) were sown in standard soil in pots. After cultivation for 12 days (post-emergence) under controlled conditions in a glasshouse (at 24/18° C. or 20/16° C., at day/night; 16 hours light; 65% humidity), the plants were sprayed with an aqueous spray solution derived from the formulation of the technical active ingredient dissolved in IF50 (see Table B2 for composition) and adjuvant (Genapol XO80) was added to the spray solution at a rate of 0.2% v/v. [table] [table] After application, the test plants were grown in a glasshouse under controlled conditions (as above) and watered twice daily. Herbicidal activity was evaluated 15 days after application on a 0-100 scale. The results, where 0=no damage to test plant and 100=total kill of test plant are shown below in Tables 6 to 9.

For Cc1nn(C)c(=O)c(-c2c(F)ccc(Cl)c2CCc2ccc(C#N)cc2)c1O [Compound 1.024], the “percentage damage caused to the plant, five point scale, AMARE” value [1] was 5 (5=80-100%), the “percentage damage caused to the plant, five point scale, ECHCG” value [2] was 5 (5=80-100%) and the “percentage damage caused to the plant, five point scale, IPOHE” value [3] was 5 (5=80-100%). For the same compound, the “percentage damage caused to the plant, five point scale, LOLPE” value [4] was 5 (5=80-100%), the “percentage damage caused to the plant, five point scale, SETFA” value [5] was 5 (5=80-100%) and the “percentage damage caused to the plant, five point scale, SOLNI” value [6] was 5 (5=80-100%). The “Herbicidal activity, ABUTH” value ([7]; 15 g/Ha) was 90, the “Herbicidal activity, ABUTH” value ([7]; 30 g/Ha) was 90 and the “Herbicidal activity, ABUTH” value ([7]; 60 g/Ha) was 100. The “Herbicidal activity, ABUTH” value ([7]; 125 g/Ha) was 100, the “Herbicidal activity, ABUTH” value ([7]; 250 g/Ha) was 100 and the “Herbicidal activity, ABUTH” value ([7]; 500 g/Ha) was 100. The “Herbicidal activity, AMARE” value ([7]; 15 g/Ha) was 80, the “Herbicidal activity, AMARE” value ([7]; 30 g/Ha) was 90 and the “Herbicidal activity, AMARE” value ([7]; 60 g/Ha) was 90. The “Herbicidal activity, AMARE” value ([7]; 125 g/Ha) was 100, the “Herbicidal activity, AMARE” value ([7]; 250 g/Ha) was 100 and the “Herbicidal activity, AMARE” value ([7]; 500 g/Ha) was 100. The “Herbicidal activity, BIDPI” value ([7]; 15 g/Ha) was 80, the “Herbicidal activity, BIDPI” value ([7]; 30 g/Ha) was 80 and the “Herbicidal activity, BIDPI” value ([7]; 60 g/Ha) was 80. The “Herbicidal activity, BIDPI” value ([7]; 125 g/Ha) was 80, the “Herbicidal activity, BIDPI” value ([7]; 250 g/Ha) was 80 and the “Herbicidal activity, BIDPI” value ([7]; 500 g/Ha) was 90. The “Herbicidal activity, BRAPL” value ([7]; 15 g/Ha) was 30, the “Herbicidal activity, BRAPL” value ([7]; 30 g/Ha) was 60 and the “Herbicidal activity, BRAPL” value ([7]; 60 g/Ha) was 70. For the same compound, the “Herbicidal activity, BRAPL” value ([7]; 125 g/Ha) was 70, the “Herbicidal activity, BRAPL” value ([7]; 250 g/Ha) was 70 and the “Herbicidal activity, BRAPL” value ([7]; 500 g/Ha) was 90. For the same compound, the “Herbicidal activity, DIGSA” value ([7]; 15 g/Ha) was 0, the “Herbicidal activity, DIGSA” value ([7]; 30 g/Ha) was 20 and the “Herbicidal activity, DIGSA” value ([7]; 60 g/Ha) was 40. The “Herbicidal activity, DIGSA” value ([7]; 125 g/Ha) was 80, the “Herbicidal activity, DIGSA” value ([7]; 250 g/Ha) was 90 and the “Herbicidal activity, DIGSA” value ([7]; 500 g/Ha) was 90. The “Herbicidal activity, ECHCG” value ([7]; 15 g/Ha) was 70, the “Herbicidal activity, ECHCG” value ([7]; 30 g/Ha) was 80 and the “Herbicidal activity, ECHCG” value ([7]; 60 g/Ha) was 80. The “Herbicidal activity, ECHCG” value ([7]; 125 g/Ha) was 90, the “Herbicidal activity, ECHCG” value ([7]; 250 g/Ha) was 90 and the “Herbicidal activity, ECHCG” value ([7]; 500 g/Ha) was 100. For the same compound, the “Herbicidal activity, ELEIN” value ([7]; 15 g/Ha) was 0, the “Herbicidal activity, ELEIN” value ([7]; 30 g/Ha) was 40 and the “Herbicidal activity, ELEIN” value ([7]; 60 g/Ha) was 40. For the same compound, the “Herbicidal activity, ELEIN” value ([7]; 125 g/Ha) was 60, the “Herbicidal activity, ELEIN” value ([7]; 250 g/Ha) was 80 and the “Herbicidal activity, ELEIN” value ([7]; 500 g/Ha) was 80. The “Herbicidal activity, EPHHL” value ([7]; 15 g/Ha) was 70, the “Herbicidal activity, EPHHL” value ([7]; 30 g/Ha) was 90 and the “Herbicidal activity, EPHHL” value ([7]; 60 g/Ha) was 90. For the same compound, the “Herbicidal activity, EPHHL” value ([7]; 125 g/Ha) was 90, the “Herbicidal activity, EPHHL” value ([7]; 250 g/Ha) was 100 and the “Herbicidal activity, EPHHL” value ([7]; 500 g/Ha) was 100. The “Herbicidal activity, GLXMA” value ([7]; 15 g/Ha) was 70, the “Herbicidal activity, GLXMA” value ([7]; 30 g/Ha) was 80 and the “Herbicidal activity, GLXMA” value ([7]; 60 g/Ha) was 90. The “Herbicidal activity, GLXMA” value ([7]; 125 g/Ha) was 90, the “Herbicidal activity, GLXMA” value ([7]; 250 g/Ha) was 100 and the “Herbicidal activity, GLXMA” value ([7]; 500 g/Ha) was 100. For the same compound, the “Herbicidal activity, IPOHE” value ([7]; 30 g/Ha) was 100, the “Herbicidal activity, IPOHE” value ([7]; 60 g/Ha) was 100 and the “Herbicidal activity, IPOHE” value ([7]; 125 g/Ha) was 100. The “Herbicidal activity, IPOHE” value ([7]; 250 g/Ha) was 100, the “Herbicidal activity, IPOHE” value ([7]; 500 g/Ha) was 100 and the “Herbicidal activity, ORYSA” value ([7]; 15 g/Ha) was 0. The “Herbicidal activity, ORYSA” value ([7]; 30 g/Ha) was 0, the “Herbicidal activity, ORYSA” value ([7]; 60 g/Ha) was 0 and the “Herbicidal activity, ORYSA” value ([7]; 125 g/Ha) was 0. For the same compound, the “Herbicidal activity, ORYSA” value ([7]; 250 g/Ha) was 20, the “Herbicidal activity, ORYSA” value ([7]; 500 g/Ha) was 40 and the “Herbicidal activity, PANMI” value ([7]; 15 g/Ha) was 0. For the same compound, the “Herbicidal activity, PANMI” value ([7]; 30 g/Ha) was 70, the “Herbicidal activity, PANMI” value ([7]; 60 g/Ha) was 80 and the “Herbicidal activity, PANMI” value ([7]; 125 g/Ha) was 90. The “Herbicidal activity, PANMI” value ([7]; 250 g/Ha) was 90, the “Herbicidal activity, PANMI” value ([7]; 500 g/Ha) was 100 and the “Herbicidal activity, SETFA” value ([7]; 15 g/Ha) was 20. The “Herbicidal activity, SETFA” value ([7]; 30 g/Ha) was 70, the “Herbicidal activity, SETFA” value ([7]; 60 g/Ha) was 80 and the “Herbicidal activity, SETFA” value ([7]; 125 g/Ha) was 90. The “Herbicidal activity, SETFA” value ([7]; 250 g/Ha) was 90, the “Herbicidal activity, SETFA” value ([7]; 500 g/Ha) was 100 and the “Herbicidal activity, SIDSP” value ([7]; 15 g/Ha) was 80. The “Herbicidal activity, SIDSP” value ([7]; 30 g/Ha) was 90, the “Herbicidal activity, SIDSP” value ([7]; 60 g/Ha) was 90 and the “Herbicidal activity, SIDSP” value ([7]; 125 g/Ha) was 100. For the same compound, the “Herbicidal activity, SIDSP” value ([7]; 250 g/Ha) was 100, the “Herbicidal activity, SIDSP” value ([7]; 500 g/Ha) was 100 and the “Herbicidal activity, SORVU” value ([7]; 15 g/Ha) was 0. The “Herbicidal activity, SORVU” value ([7]; 30 g/Ha) was 10, the “Herbicidal activity, SORVU” value ([7]; 60 g/Ha) was 70 and the “Herbicidal activity, SORVU” value ([7]; 125 g/Ha) was 80. The “Herbicidal activity, SORVU” value ([7]; 250 g/Ha) was 90, the “Herbicidal activity, SORVU” value ([7]; 500 g/Ha) was 100 and the “Herbicidal activity, XANST” value ([7]; 60 g/Ha) was 80. For the same compound, the “Herbicidal activity, XANST” value ([7]; 125 g/Ha) was 80, the “Herbicidal activity, XANST” value ([7]; 500 g/Ha) was 100 and the “Herbicidal activity, ZEAMX” value ([7]; 15 g/Ha) was 0. For the same compound, the “Herbicidal activity, ZEAMX” value ([7]; 30 g/Ha) was 10, the “Herbicidal activity, ZEAMX” value ([7]; 60 g/Ha) was 20 and the “Herbicidal activity, ZEAMX” value ([7]; 125 g/Ha) was 40. For the same compound, the “Herbicidal activity, ZEAMX” value ([7]; 250 g/Ha) was 70 and the “Herbicidal activity, ZEAMX” value ([7]; 500 g/Ha) was 100.
